Test results: patent publication US8618074B2, “GPCR enhanced neuroprotection to treat brain injury” (Board of Regents of the University of Texas System, priority 2007, dated 2013)

How the values were obtained:
astrocytes [1] = assay: Astrocyte survival under t-buOOH oxidative stress in the absence of neurons; assay type: cell-based, mouse
Procedure: To determine whether P2Y-R enhanced mitochondrial metabolism in astrocytes affected neuronal resistance to oxidative stress, we prepared co-cultures of neurons and astrocytes using corning transwell-clear permeable supports, which physically separates the two cell-types by ˜1 mm (# 07-200-170, Fisher scientific). Primary cultures of astrocytes were directly prepared in transwell supports until they were ˜70% confluent. Mouse cortical neurons were then cultured onto glass bottom mattek plates and maintained in B-27/Neurobasal Medium to control glia contamination to less than 0.5% (Invitrogen). After four days, co-cultures were treated with t-buOOH (100 μM) for 4 hours with and without pre-stimulation of ATP (2 μM, 10 minutes). Cells were then stained with the DNA intercalating dye Hoechst 33342 (10 μg/ml, Molecular Probes, #H-3570) and calcein AM (2 μM, Molecular Probes, #C3100). […] We then tested the neuroprotective affects of isoform specific purinergic ligands 2-MeSADP(P2Y1-R) and UTP(P2Y2-R). FIG. 6A depicts histogram plots of the percentage of neurons alive when cocultured with young or old astrocytes. FIG. 6B depicts histogram plots of the percentage of neurons alive pretreated with either 2-MeSADP (2 μM) or UTP (50 μM) for 10 min. A ten-minute pre-treatment of astrocytes with either 2-MeSADP (2 μM), or UTP (50 μM) was equally protective against oxidative stress induced cell death. The % neurons alive after 4.5 hours of t-buOOH treatment was 51±4% (n=1664 neurons, pooled from 4 experiments) for untreated controls, 70±2% (n=2541 neurons, pooled from 4 experiments) for 2-MeSADP and 71±3% (n=1189 neurons, pooled from 4 experiments) for UTP treated co-cultures. […] The % astrocytes alive after 4.5 hours of t-buOOH treatment, in the absence of neurons, was 60±4% (n=294 cells) for control, 77±4% (n=294) for 2-MeSADP and 79±3% (n=333) for UTP treated astrocytes.
It should be noted that stimulation of neuroprotective response in astrocytes is not restricted to signaling through P2Y receptors. For example we have shown that administration of the membrane permeable IP3 analog, IP3BM, is capable of protecting astrocytes from oxidative damage. Thus, it appears possible that any stimulus capable of evoking IP3-mediated calcium release in astrocytes is equally suitable for application in the present treatment methods. To test this possibility, astrocyte cultures subjected to oxidative stress were treated with either 2-MeSADP, or the metabotropic glutamate receptor agonist (1 S, 3 R)-1-aminocyclopentane-1,3-dicarboxylic acid (ACPD), or were left untreated.
To directly examine the role of IP3 gated Ca^2+ release in P2Y-R enhanced astrocyte protection, we used a membrane permeant butyryloxymethyl ester of IP3 (IP3-BM). Cultures of astrocytes were exposed to IP3-BM and Ca^2+ levels were assessed using 2-photon imaging of Fura 2. Ca^2+ increases in response to IP3-BM application were easily detected, but they occurred over a much slower time course than those initiated by ATP treatment. This was not unexpected because of the slow process of IP3-BM movement across the lipid bilayer as well as the time needed to cleave the ester and accumulate IP3 in the cell. Because of the slower time course, we pretreated astrocytes for 20 minutes prior to exposing them to the oxidant stress t-BuOOH. […] The protective effect of IP3-BM treatment was blocked by the IP3R inhibitor, XeC. […]

[2] = system: RB-induced cerebral infarcts in the mouse cortex; assay: RB-induced photothrombotic cerebral infarct size, small animal imaging with PE-Cy5.5 anti-CD40; assay type: in vivo
Procedure: These set of experiments utilizes small animal imaging studies to non-invasively study the impact of G-protein stimulated IP3-gated Ca^2+ release on astrocyte neuroprotection during the aging process. In brief, focal cerebral infarcts are induced using photothrombosis as described in EXAMPLE 8. However, irradiation of the brain with green light is carried out through the cranium with a 10× objective. […] We observe the size of the lesion in subsequent days by taking advantage of an inflammatory response at the lesion, which we label with a fluorescently conjugated antibody to CD40 (PE-Cy5.5-anti-mouse-CD40). […] It has also been reported that the PE-Cy5.5 CD40 antibody localized to activated endothelium at the brain lesion and to blood derived cells of the mononuclear lineage. We have successfully used this approach to image RB-induced brain inflammation in mice with high sensitivity and specificity. […] To carry out these experiments, 3 mice were imaged. On the day of the initial photothrombosis, one mouse was injected with Rose Bengal, one with Rose Bengal and 2-MeSADP and the third mouse was injected only with saline. […] For one set of mice, we re-imaged the mice at day 17 post occlusion and found CD40 labeling undetectable in the 2-MeSADP injected mouse. […] Finally, in one mouse, we also injected a fluorescent dye (IR-820) on day 3 that is a strong indicator of blood brain barrier dysfunction. Accumulation of this dye at the site of a lesion is consistent with a permeant (i.e., compromised) blood brain barrier. As noted above small animal imaging has been successfully employed to progressively follow and measure the size of Rose Bengal (RB)-induced brain infarcts in live mice for over 2 weeks.

astrocytes [3] = assay: Confocal Ca2+ imaging of astrocytes on bath application of ATP; assay type: cell-based, mouse; details: bath application of ATP 1 μM; cultured young and old astrocytes
Source text: The next physiological response that we investigated during aging was intracellular Ca^2+ signaling. Metabotropic purinergic receptors (P2Y-Rs) are well known to generate robust Ca^2+ signals in astrocytes. Our initial bias was that we would observe reduced Ca^2+ responses in astrocytes cultured from old mice. […] Ca^2+ measurements were made using standard confocal imaging of Ca^2+ sensitive fluorescent dyes, which loaded equally well for both young and old astrocytes. […] The first surprise finding was that a higher percentage of old astrocytes (more than half) responded to exogenously applied ATP. […] However, we can account for these observed enhancements to cytosolic Ca^2+ signaling in old astrocytes by a reduced ability of mitochondria to sequester Ca^2+ during aging. […] The ability of mitochondria to sequester Ca^2+, and thereby modulate IP3-induced Ca^2+ release, is critically dependent on the mitochondrial membrane potential (ΔΨ) and close proximity of mitochondria to the Ca^2+ release site. This proximity allows mitochondria to sense greater Ca^2+ concentrations than those present in the bulk cytosolic compartment. Consequently, a reduction in ΔΨ with age will reduce mitochondrial Ca^2+ buffering, thereby leading to increased cytosolic Ca^2+ release and faster Ca^2+ dynamics.

Structure (SMILES)	% astrocytes alive (astrocytes [1]; absence of neurons, 4.5 hours of t-buOOH, 2-MeSADP or UTP) [%]	astrocyte resistance to oxidative stress (astrocytes [1]; astrocyte cultures subjected to oxidative stress, versus untreated)	size of the cerebral infarct ([2]; 2-MeSADP introduced 24 hours later)	size of the cerebral infarct ([2]; 2-MeSADP present during the initial photothrombosis (day 0))	size of the lesion ([2]; day 3 after cerebral infarction, co-injected with Rose Bengal, versus Rose Bengal or saline alone)	CD40 labeling ([2]; day 17 post occlusion)	Ca2+ oscillations (astrocytes [3])
CSc1nc(N)c2ncn([C@@H]3O[C@H](COP(=O)(O)OP(=O)(O)O)[C@@H](O)[C@H]3O)c2n1 [2-MeSADP]	77±4	enhanced	reduced	reduced	significantly smaller	undetectable	
Nc1ncnc2c1ncn2[C@@H]1O[C@H](COP(=O)(O)OP(=O)(O)OP(=O)(O)O)[C@@H](O)[C@H]1O [ATP]							stimulated Ca^2+ oscillations
